According to patent US10160744B2, “Quinoline compounds suitable for treating disorders that respond to the modulation of the serotonin 5-HT6 receptor” (Abbvie Deutschland GmbH & Co. KG, priority 2016, dated 2018):
Counter-ions that a name gives are not always drawn.

Legend:
[1] = Metabolic stability in human liver microsomes (microsomal clearance); format: in vitro ADME; details: pH 7.4; human liver microsomes 0.25 mg protein/mL, 0.5 μM compound, NADPH, 37° C.; read-out: mClint
Method: Samples of the tested compounds (0.5 μM) were preincubated together with human liver microsomes (0.25 mg of microsomal protein/mL) in 0.05 M potassium phosphate buffer of pH 7.4 in microtiter plates at 37° C. for 5 minutes. The reaction was started by adding NADPH (1.0 mM). After 0, 5, 10, 15, 20 and 30 minutes, an aliquot was removed, the reaction was cooled and stopped by adding twice the amount of quench solution consisting of acetonitrile/methanol 1:1, and containing 0.2 μM carbutamide as internal standard. The samples were frozen until analyzed. The remaining concentration of undegraded test substance was determined by liquid chromatography-tandem mass spectrometry (LC-MS/MS). The half-life (t1/2) was determined from the gradient of the ratio of the signal of (test substance/internal standard)/unit time plot, allowing the calculation of the half-life of the test substance, assuming first order kinetics, from the decrease in the concentration of the compound with time. The microsomal clearance (mClint) was calculated as follows: mClint=((ln(2)/t 1/2)/Microsomal Protein Concentration (mg/ml))*1000, leading to the unit of μL/min/mg.

[2] = biological target: T1, h-5-HT6 receptor (Homo sapiens, UniProt P50406); experiment: 5-HT6 receptor binding assay (displacement of [3H]-LSD); details: cloned human 5-HT6 receptor, HEK293 membranes, 1 nM [3H]-LSD
T1 construct: expressed in transfected cells
T1 sequence (P50406 whole entry): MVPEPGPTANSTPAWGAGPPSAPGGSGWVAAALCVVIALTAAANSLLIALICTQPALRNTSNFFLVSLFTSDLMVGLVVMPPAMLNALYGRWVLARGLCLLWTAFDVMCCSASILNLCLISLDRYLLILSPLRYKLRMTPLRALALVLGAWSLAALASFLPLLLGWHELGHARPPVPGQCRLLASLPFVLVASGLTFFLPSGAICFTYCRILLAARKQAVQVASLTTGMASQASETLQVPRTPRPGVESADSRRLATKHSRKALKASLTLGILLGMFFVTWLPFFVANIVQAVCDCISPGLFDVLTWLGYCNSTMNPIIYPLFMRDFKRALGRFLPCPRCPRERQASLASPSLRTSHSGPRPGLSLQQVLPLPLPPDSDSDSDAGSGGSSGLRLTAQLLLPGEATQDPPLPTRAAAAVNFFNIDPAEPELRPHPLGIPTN
Method: Displacement of radioligands binding to the following cloned human receptors
1. Preparation of Membranes by Ultrasonic Treatment and Differential Centrifugation
Cells from stable clonal cell lines expressing the corresponding receptor (5-HT6, α1-adrenergic, dopamine D2 or histamine H1 receptors) were washed with PBS (w/o Ca^++, Mg^++) and harvested in PBS with 0.02% EDTA. The cells were collected by centrifugation at 500 g for 10 min. at 4° C., washed with PBS and centrifuged (500 g, 10 min. 4° C.). The pellets were stored at −80° C. until use. For membrane preparation, the thawed cell pellet was resuspended in ice-cold sucrose buffer (0.25 M sucrose, 10 mM Hepes (pH 7.4), 1 mM Phenylmethylsulfonyl fluoride (PMSF) in DMSO, 5 μg/ml Pepstatin-A, 3 mM EDTA, 0.025% Bacitracin) and homogenized with a Branson Sonifier W-250 (Settings: Timer 4; Output Control 3; Duty Cycle constant; 2 to 3 cycles). Cell disruption was checked with the aid of a microscope. Remaining unbroken cells were pelleted at 1.000 g for 10 min. at 4° C. The sucrose buffer supernatant was then centrifuged at 60.000 g for 1 h at 4° C. (Beckman Ultrazentrifuge XL 80). The pellet was resuspended in 30 ml ice-cold Tris buffer (20 mM TRIS (pH 7.4), 5 μg/ml Pepstatin A, 0.1 mM PMSF, 3 mM EDTA) by pipetting through a 10 ml serological pipet and centrifuged for 1 h at 4° C. at 60.000 g. A final resuspension was performed in a small volume of ice-cold Tris buffer (see above) by pressing through a serological pipet followed by ultrasonic treatment with a Branson Sonifier W-250 (Settings: Timer 1; Output Control 3; Duty Cycle constant; 1 cycle). Protein concentration was determined (BCA-Kit; Pierce) and aliquots stored at −80° C. or in liquid nitrogen for long-term storage.
2. Receptor Binding Experiments
All receptor binding experiments were carried out in the corresponding assay buffer in a total volume of 200 μl in the presence of various concentrations of test compound (10^−5 M to 10^−9 M, tenfold serial dilution, duplicate determinations). The assays were terminated by filtration on polyethylenimine (PEI 0.1% or 0.3%) presoaked Packard Unifilter Plates (GF/C or GF/B) with a Tomtec MachIII U 96 well-plate harvester. After the plates had been dried for 2 h at 55° C. in a drying chamber scintillation cocktail (BetaPlate Scint; PerkinElmer) was added. Radioactivity was measured in a Microbeta Trilux two hours after the addition of the scintillation mixture. Data derived from liquid scintillation counting were analysed by iterative non-linear regression analysis with the use of the Statistical Analysis System (SAS): a program similar to “LIGAND” as described by Munson and Rodbard (Analytical Biochemistry 107, 220-239 (1980).
a) 5-HT6 Receptor Binding Assay
HEK293 cells stably expressing the h-5-HT6 receptor (NCBI Reference Sequence XM 001435) were cultured in RPMI1640 medium supplemented with 25 mM HEPES, 10% fetal calf serum and 1-2 mM glutamine. The membrane preparation was performed as described in section 1. […] Non-specific binding was defined with 1 μM methiothepin. The binding reaction was carried out for 3.5 h at room temperature. During the incubation, the plates were shaken on a plate shaker at 100 rpm and terminated by filtration on Packard Unifilter GF/C (0.1% PEI) plates, followed by 2 wash cycles with ice-cold 50 mM Tris-HCl, 5 mM CaCl2.
Data derived from liquid scintillation counting were analyzed by iterative non-linear regression analysis with the use of the Statistical Analysis System (SAS): a program similar to “LIGAND” as described by Munson and Rodbard (Anal. Biochem. 1980, 107, 220-239). Fitting was performed according to formulae described by Feldman (Anal. Biochem. 1972, 48, 317-338). IC50, nH and Ki values were expressed as geometrical mean.

Compound	microsomal CLint at 0.5 μM [1]	Ki [2]
O=S(=O)(c1cccc(N2CCC(O)CC2)c1)c1cnc2c(F)cccc2c1 [Example 24, 1-[3-[(8-Fluoro-3-quinolyl)sulfonyl]phenyl]piperidin-4-ol]	60 to 120 µL/min/mg	10 to 100 nM
O=S(=O)(c1cccc(N2CCC(O)CC2)c1)c1cnc2c(N3CCC(O)CC3)cccc2c1 [Example 16, 1-[3-[[8-(4-Hydroxy-1-piperidyl)-3-quinolyl]sulfonyl]phenyl]piperidin-4-ol]	30 to 60 µL/min/mg	10 to 100 nM
O=S(=O)(c1ccccc1)c1cnc2c(N3C[C@H](O)[C@@H](O)C3)cccc2c1 [Example 32, (3S,4S)-1-[3-(Benzenesulfonyl)-8-quinolyl]pyrrolidine-3,4-diol]	30 to 60 µL/min/mg	< 10 nM
O=S(=O)(c1ccccc1)c1cnc2c(N3CC[C@@H](O)[C@@H](O)C3)cccc2c1 [Example 41, (3S,4R)-1-[3-(Benzenesulfonyl)-8-quinolyl]piperidine-3,4-diol]	< 30 µL/min/mg	< 10 nM
COc1ccc(C)cc1S(=O)(=O)c1cnc2c(N3CC(O)C3)cccc2c1 [Example 40, 1-[3-(2-Methoxy-5-methyl-phenyl)sulfonyl-8-quinolyl]azetidin-3-ol]		10 to 100 nM
Cc1ccc(O)c(S(=O)(=O)c2cnc3c(N4CCC(O)CC4)cccc3c2)c1 [Example 28, 1-[3-(2-Hydroxy-5-methyl-phenyl)sulfonyl-8-quinolyl]piperidin-4-ol]	30 to 60 µL/min/mg	10 to 100 nM
O=S(=O)(c1cccc(F)c1)c1cnc2c(N3CCC(O)CC3)cccc2c1 [Example 9, 1-[3-(3-Fluorophenyl)sulfonyl-8-quinolyl]piperidin-4-ol]	< 30 µL/min/mg	< 10 nM
CC1(O)CCN(c2cccc3cc(S(=O)(=O)c4cccc(C(F)(F)F)c4)cnc23)CC1 [Example 7, 4-Methyl-1-[3-[3-(trifluoromethyl)phenyl]sulfonyl-8-quinolyl]piperidin-4-ol Hydrochloride]	60 to 120 µL/min/mg	< 10 nM
O=S(=O)(c1cccc(F)c1)c1cnc2c(N3CC[C@@H](O)C3)cccc2c1 [Example 33, (3R)-1-[3-(3-Fluorophenyl)sulfonyl-8-quinolyl]pyrrolidin-3-ol]	30 to 60 µL/min/mg	< 10 nM
O=S(=O)(c1cccc(C(F)(F)F)c1)c1cnc2c(N3CCC(O)CC3)cccc2c1 [Example 1, 1-[3-(3-Trifluoromethyl-benzenesulfonyl)-quinolin-8-yl]-piperidin-4-ol]	30 to 60 µL/min/mg	< 10 nM
O=S(=O)(c1cccc(C(F)(F)F)c1)c1cnc2c(N3CC(O)C3)cccc2c1 [Example 8, 1-[3-[3-(Trifluoromethyl)phenyl]sulfonyl-8-quinolyl]azetidin-3-ol]	30 to 60 µL/min/mg	< 10 nM
O=S(=O)(c1cccc(F)c1)c1cnc2c(N3CCC[C@H](O)C3)cccc2c1 [Example 27, (3S)-1-[3-(3-Fluorophenyl)sulfonyl-8-quinolyl]piperidin-3-ol]	30 to 60 µL/min/mg	< 10 nM
O=S(=O)(c1ccccc1)c1cnc2c(N3C[C@@H](O)[C@@H](O)C3)cccc2c1 [Example 42, (3R,4S)-1-[3-(Benzenesulfonyl)-8-quinolyl]pyrrolidine-3,4-diol]	< 30 µL/min/mg	< 10 nM
O=S(=O)(c1ccccc1)c1cnc2c(N3CC[C@H](O)C3)cccc2c1 [Example 30, (3S)-1-[3-(Benzenesulfonyl)-8-quinolyl]pyrrolidin-3-ol]	60 to 120 µL/min/mg	< 10 nM
O=S(=O)(c1cccc(C(F)(F)F)c1)c1cnc2c(N3CCC[C@@H](O)C3)cccc2c1 [Example 5, (R)-1-[3-(3-Trifluoromethyl-benzenesulfonyl)-quinolin-8-yl]-piperidin-3-ol]	60 to 120 µL/min/mg	< 10 nM
O=S(=O)(c1ccccc1)c1cnc2c(N3CCC[C@@H](O)C3)cccc2c1 [Example 23, (3R)-1-[3-(Benzenesulfonyl)-8-quinolyl]piperidin-3-ol]	30 to 60 µL/min/mg	< 10 nM
COc1ccccc1S(=O)(=O)c1cnc2c(N3CC(O)C3)cccc2c1 [Example 39, 1-[3-(2-Methoxyphenyl)sulfonyl-8-quinolyl]azetidin-3-ol]	60 to 120 µL/min/mg	10 to 100 nM
O=S(=O)(c1cnc2c(F)cccc2c1)c1ccccc1N1CCC(O)CC1 [Example 25, 1-[2-[(8-Fluoro-3-quinolyl)sulfonyl]phenyl]piperidin-4-ol]		10 to 100 nM
O=C(O)C1CCN(c2cccc3cc(S(=O)(=O)c4ccccc4)cnc23)CC1 [Example 37, 1-[3-(Benzenesulfonyl)-8-quinolyl]piperidine-4-carboxylic Acid]	< 30 µL/min/mg	10 to 100 nM
O=S(=O)(c1ccccc1)c1cnc2c(N3CCC(O)CC3)cccc2c1 [Example 18, 1-[3-(Benzenesulfonyl)-8-quinolyl]piperidin-4-ol]	< 30 µL/min/mg	< 10 nM
O=C(O)C1CCN(c2cccc3cc(S(=O)(=O)c4cccc(C(F)(F)F)c4)cnc23)CC1 [Example 3, 1-[3-(3-Trifluoromethyl-benzenesulfonyl)-quinolin-8-yl]-piperidine-4-carboxylic Acid]	< 30 µL/min/mg	< 10 nM
O=S(=O)(c1cnc2c(F)cccc2c1)c1ccccc1N1CC(O)C1 [Example 38, 1-[2-[(8-Fluoro-3-quinolyl)sulfonyl]phenyl]azetidin-3-ol]		100 to 500 nM
COc1cccc(S(=O)(=O)c2cnc3c(N4CC(O)C4)cccc3c2)c1 [Example 14, 1-[3-(3-Methoxyphenyl)sulfonyl-8-quinolyl]azetidin-3-ol]		10 to 100 nM
NC(=O)C1CCCN(c2cccc3cc(S(=O)(=O)c4cccc(C(F)(F)F)c4)cnc23)C1 (stereo not shown) [Example 46, 1-[3-(3-Trifluoromethyl-benzenesulfonyl)-quinolin-8-yl]-piperidine-3-carboxylic Acid Amide]		< 10 nM
COc1ccc(C)cc1S(=O)(=O)c1cnc2c(N3CCC(O)CC3)cccc2c1 [Example 35, 1-[3-(2-Methoxy-5-methyl-phenyl)sulfonyl-8-quinolyl]piperidin-4-ol]		10 to 100 nM
O=C(O)[C@H]1CCN(c2cccc3cc(S(=O)(=O)c4cccc(C(F)(F)F)c4)cnc23)C1 [Example 11, (3S)-1-[3-[3-(Trifluoromethyl)phenyl]sulfonyl-8-quinolyl]pyrrolidine-3-carboxylic Acid]		10 to 100 nM
O=S(=O)(c1cccc(F)c1)c1cnc2c(N3CC[C@H](O)C3)cccc2c1 [Example 26, (3S)-1-[3-(3-Fluorophenyl)sulfonyl-8-quinolyl]pyrrolidin-3-ol]		< 10 nM
